# Experimental data from patent publication US8394801B2, “Quinoxaline derivatives and their use for treating benign and malignant tumour disorders” (Aeterna Zentaris GmbH, priority 2009, dated 2013).
# Experiments:
# [1] = test system: NCI-H460; test: Proliferation assay (Alamar Blue / XTT), NCI-H460; format: cell-based; details: Homo sapiens; cell line NCI-H460 (lung)
# [2] = test system: SKOV-3; test: Proliferation assay (Alamar Blue / XTT), SKOV-3; format: cell-based; details: Homo sapiens, SK-OV-3; cell line SKOV-3 (ovaries)
# [3] = test system: HCT116; test: Proliferation assay (Alamar Blue / XTT), HCT116; format: cell-based; details: Homo sapiens; cell line HCT-116 (colon)
# [4] = test system: MDA MB468; test: Proliferation assay (Alamar Blue / XTT), MDA MB468; format: cell-based; details: Homo sapiens, MDA-MB-468; cell line MDA-MB468 (breast)
# [5] = test system: PC-3; test: Proliferation assay (Alamar Blue / XTT), PC-3; format: cell-based; details: Homo sapiens, cell line PC3 (prostate)
# [6] = test system: A549; test: Proliferation assay (Alamar Blue / XTT), A549; format: cell-based; details: Homo sapiens; cell line A549 (lung)
# [7] = test system: U87MG; test: Proliferation assay (Alamar Blue / XTT), U87MG; format: cell-based; details: Homo sapiens, U-87 MG; cell line U87MG (glioma)
# [8] = test system: L363; test: Proliferation assay (Alamar Blue / XTT), L363; format: cell-based; details: Homo sapiens, L-363; cell line L363 (leukaemia)
# [9] = test system: TMM; test: Proliferation assay (Alamar Blue / XTT), TMM; format: cell-based; details: Homo sapiens; cell line TMM (leukaemia)
# [10] = test system: RKOP27; test: Proliferation assay (Alamar Blue / XTT), RKOP27; format: cell-based; details: Homo sapiens; cell line RKOp27 (colon)
# [11] = test system: RS4, 11; test: Proliferation assay (Alamar Blue / XTT), RS4, 11; format: cell-based; details: Homo sapiens; cell line RS4,11 (leukaemia)
# [12] = test system: HSB-2; test: Proliferation assay (Alamar Blue / XTT), HSB-2; format: cell-based; details: Homo sapiens, HSB2; cell line HSB-2 (leukaemia)
# [13] = test system: NALM-6; test: Proliferation assay (Alamar Blue / XTT), NALM-6; format: cell-based; details: Homo sapiens; cell line NALM-6 (leukaemia)
# [14] = test system: MOLT-3; test: Proliferation assay (Alamar Blue / XTT), MOLT-3; format: cell-based; details: Homo sapiens; cell line MOLT-3 (leukaemia)
# [15] = test system: MOLT-16; test: Proliferation assay (Alamar Blue / XTT), MOLT-16; format: cell-based; details: Homo sapiens; cell line MOLT-16 (leukaemia)
# [16] = test system: KB-HeLa; test: Proliferation assay (Alamar Blue / XTT), KB-HeLa; format: cell-based; details: Homo sapiens; cell line KB/HeLa (cervix)
# [17] = test system: MCF-7; test: Proliferation assay (Alamar Blue / XTT), MCF-7; format: cell-based; details: Homo sapiens, MCF7; cell line MCF-7 (breast)
# [18] = test system: MDA-MB435; test: Proliferation assay (Alamar Blue / XTT), MDA-MB435; format: cell-based; details: Homo sapiens, MDA-MB-435; cell line MDA-MBA435 (breast)
# [19] = test system: LNCaP; test: Proliferation assay (Alamar Blue / XTT), LNCaP; format: cell-based; details: Homo sapiens; cell line LnCap (prostate)
# [20] = test system: A2780; test: XTT proliferation test, A2780; format: cell-based; details: Homo sapiens, cell line A2780 (ovary), non-resistant
# From the text: (§1) For further characterization, the substances according to the invention were examined in resistant tumour cell lines compared to non-resistant wild-type tumour cell lines.
# (§2) The cell lines examined are the cell line A2780 (ovary), the cis-platin-resistant cell line A2780 (ovary), the cell line L1210 (leukaemia), the vincristine-resistant cell line L1210 (leukaemia), the cell line MESSA (uterus), the doxorubicin-resistant cell line MESSA Dx5 (uterus), the cell line NCIH69 (lung) and the multi-drug-resistant cell line NCIH69 AR (lung).
# [21] = test system: A2780 cis-Pt; test: XTT proliferation test, cis-platin-resistant A2780; format: cell-based; details: Homo sapiens, cis-platin-resistant cell line A2780 (ovary)
# From the text: as §1, §2
# [22] = test system: L1210; test: XTT proliferation test, L1210; format: cell-based; details: Mus musculus, cell line L1210 (leukaemia), non-resistant
# From the text: as §1, §2
# [23] = test system: L1210 VCR; test: XTT proliferation test, vincristine-resistant L1210; format: cell-based; details: Mus musculus, vincristine-resistant cell line L1210 (leukaemia)
# From the text: as §1, §2
# [24] = test system: MESSA; test: XTT proliferation test, MESSA; format: cell-based; details: Homo sapiens, MES-SA, cell line MESSA (uterus), non-resistant
# From the text: as §1, §2
# [25] = test system: MESSA DX5; test: XTT proliferation test, doxorubicin-resistant MESSA Dx5; format: cell-based; details: Homo sapiens, MES-SA/Dx5, doxorubicin-resistant cell line MESSA Dx5 (uterus)
# From the text: as §1, §2
# [26] = test system: NCI H69; test: XTT proliferation test, NCI H69; format: cell-based; details: Homo sapiens, cell line NCIH69 (lung), non-resistant
# From the text: as §1, §2
# [27] = test system: NCI H69 AR; test: XTT proliferation test, multi-drug-resistant NCI H69 AR; format: cell-based; details: Homo sapiens, NCI-H69AR, multi-drug-resistant cell line NCIH69 AR (lung)
# From the text: as §1, §2
smiles,measurement,setting,value
"Cc1cc(-c2ccc3ncc(NC(=O)NC(C)C)nc3c2)cc(C)c1O [Compound 17, 1-[7-(4-Hydroxy-3,5-dimethylphenyl)quinoxalin-2-yl]-3-isopropylurea]",EC50,[1],47 nM
same,EC50,[2],40 nM
same,EC50,[3],24 nM
same,EC50,[4],39 nM
same,EC50,[5],28 nM
same,EC50,[6],29 nM
same,EC50,[7],10 nM
same,EC50,[8],78 nM
same,EC50,[9],32 nM
same,EC50,[10],26 nM
same,EC50,[11],37 nM
same,EC50,[12],37 nM
same,EC50,[13],54 nM
same,EC50,[14],36 nM
same,EC50,[15],56 nM
same,EC50,[16],37 nM
same,EC50,[17],32 nM
same,EC50,[18],18 nM
same,EC50,[19],40 nM
same,EC50,[20],0.3 nM
same,EC50,[21],0.5 nM
same,EC50,[22],2 nM
same,EC50,[23],4 nM
same,EC50,[24],152 nM
same,EC50,[25],139 nM
same,EC50,[26],27 nM
same,EC50,[27],86 nM
same,melting point,,280 to 283 °C
